Activity calls are given as the source filed them. The calls are words filed in the database; no cut-off is given here.
Legend:
[1] = target: T1, Nuclear factor erythroid 2-related factor 2 (Rattus norvegicus) (UniProt O54968); assay: Induction of NRF2/ARE enhancer activity rat PC12 cells transfected with ARE-firefly luciferase reporter gene at 10 uM after 24 hrs by luciferase assay; type: functional, cell-based; conditions: PC-12
T1 sequence (whole entry): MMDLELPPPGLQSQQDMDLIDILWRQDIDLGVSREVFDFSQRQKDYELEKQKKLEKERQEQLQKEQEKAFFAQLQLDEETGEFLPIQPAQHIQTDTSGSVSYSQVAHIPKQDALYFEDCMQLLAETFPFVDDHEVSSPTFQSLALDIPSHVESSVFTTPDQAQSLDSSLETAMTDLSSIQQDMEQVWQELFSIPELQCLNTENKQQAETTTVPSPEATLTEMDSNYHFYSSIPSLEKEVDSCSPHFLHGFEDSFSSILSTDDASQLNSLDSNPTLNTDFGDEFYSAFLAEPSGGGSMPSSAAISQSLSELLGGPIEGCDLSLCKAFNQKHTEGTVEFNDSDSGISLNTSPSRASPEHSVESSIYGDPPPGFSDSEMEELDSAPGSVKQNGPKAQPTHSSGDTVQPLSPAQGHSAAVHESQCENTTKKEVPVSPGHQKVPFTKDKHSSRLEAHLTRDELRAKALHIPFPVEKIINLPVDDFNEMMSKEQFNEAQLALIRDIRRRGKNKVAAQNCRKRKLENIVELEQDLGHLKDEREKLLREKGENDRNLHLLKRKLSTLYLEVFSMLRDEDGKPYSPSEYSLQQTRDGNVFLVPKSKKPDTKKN

PC-12 [2] = assay: Increase in intracellular ROS production in rat PC12 cells assessed as NRF2-mediated HO-1 induction at 10 uM after 24 hrs pretreated with N-acetylcysteine for 1 hr before compound addition by Western blot analysis; type: functional, cell-based
PC-12 [3] = assay: Neuroprotective activity against H2O2-induced oxidative stress in rat PC12 cells assessed as cell viability pretreated with 2 uM for 6 hrs measured before inducer addition; type: functional; conditions: read-out: Activity
PC-12 [4] = assay: Increase in intracellular ROS production in rat PC12 cells assessed as NRF2-mediated HO-1 induction at 10 uM after 24 hrs by Western blot analysis; type: functional, cell-based
PC-12 [5] = assay: Increase in intracellular ROS production in rat PC12 cells at 10 uM up to 1 hr by CM-H2-DCFDA staining-based fluorescence assay; type: functional, cell-based
[6] = target: T1, Nuclear factor erythroid 2-related factor 2 (Rattus norvegicus); assay: Activation of Nrf2/ARE in rat PC12 cells assessed as effect on HO-1 protein level at 10 uM after 24 hrs by Western blot analysis; type: functional, cell-based; conditions: PC-12
PC-12 [7] = assay: Increase in intracellular ROS production in rat PC12 cells at 10 uM after 6 hrs by CM-H2-DCFDA staining-based fluorescence assay; type: functional, cell-based
[8] = target: T1, Nuclear factor erythroid 2-related factor 2 (Rattus norvegicus); assay: Activation of Nrf2/ARE in rat PC12 cells assessed as upregulation of HO-1 protein expression at 1 to 10 uM after 12 hrs by Western blot analysis; type: functional, cell-based; conditions: PC-12
[9] = target: T1, Nuclear factor erythroid 2-related factor 2 (Rattus norvegicus); assay: Activation of Nrf2/ARE in rat PC12 cells assessed as upregulation of HO-1 mRNA expression at 10 uM after 6 hrs by RT-PCR; type: functional, cell-based; conditions: PC-12
[10] = target: T1, Nuclear factor erythroid 2-related factor 2 (Rattus norvegicus); assay: Activation of Nrf2/ARE in rat PC12 cells assessed as inhibition of H2O2-induced oxidative stress by measuring cell viability pretreated with 10 uM for 6 hrs in presence of HO-1 inhibitor Zn-protoporphyrin; type: functional, cell-based; conditions: PC-12
[11] = target: T1, Nuclear factor erythroid 2-related factor 2 (Rattus norvegicus); assay: Effect on Nrf2 protein in rat PC12 cell cytoplasmic fraction at 10 uM up to 6 hrs by Western blot analysis; type: functional, cell-based; conditions: PC-12
[12] = target: Mitogen-activated protein kinase 1 (Rattus norvegicus) (UniProt P63086); assay: Phosphorylation of ERK2 in rat PC12 cells at 10 uM after 30 mins by Western blot analysis; type: cell-based; conditions: PC-12
[13] = target: T1, Nuclear factor erythroid 2-related factor 2 (Rattus norvegicus); assay: Activation of Nrf2/ARE in rat PC12 cells assessed as induction of NQO-1 protein expression by Western blot analysis; type: functional, cell-based; conditions: PC-12
PC-12 [14] = assay: Phosphorylation of p38 kinase in rat PC12 cells at 10 uM up to 120 mins by Western blot analysis; type: cell-based
PC-12 [15] = assay: Increase in intracellular ROS production in rat PC12 cells at 10 uM after 0.5 hr by CM-H2-DCFDA staining-based fluorescence assay; type: functional, cell-based
[16] = target: Mitogen-activated protein kinase 3 (Rattus norvegicus) (UniProt P21708); assay: Phosphorylation of ERK1 in rat PC12 cells at 10 uM after 30 mins by Western blot analysis; type: cell-based; conditions: PC-12
[17] = target: T1, Nuclear factor erythroid 2-related factor 2 (Rattus norvegicus); assay: Activation of Nrf2/ARE in rat PC12 cells assessed as induction of GCSc protein expression at 10 uM by Western blot analysis; type: functional, cell-based; conditions: PC-12
[18] = target: T1, Nuclear factor erythroid 2-related factor 2 (Rattus norvegicus); assay: Induction of nuclear translocation of Nrf2 in rat PC12 cells at 10 uM after 1 hr by Western blot analysis; type: functional, cell-based; conditions: PC-12
[19] = target: T1, Nuclear factor erythroid 2-related factor 2 (Rattus norvegicus); assay: Activation of Nrf2/ARE in rat PC12 cells assessed as upregulation of HO-1 protein expression at 10 uM after 12 hrs by Western blot analysis; type: functional, cell-based; conditions: PC-12
PC-12 [20] = assay: Increase in intracellular ROS production in rat PC12 cells assessed as induction of p38 phosphorylation at 10 uM after 1 hr pretreated with N-acetylcysteine for 1 hr before compound addition by Western blot analysis; type: functional, cell-based
PC-12 [21] = assay: Neuroprotective activity against H2O2-induced oxidative stress in rat PC12 cells expressing dominant-negative Nrf2 mutant assessed as cell viability pretreated with 10 uM for 6 hrs; type: functional, cell-based
PC-12 [22] = assay: Neuroprotective activity against H2O2-induced oxidative stress in rat PC12 cells assessed as cell viability pretreated with 10 uM for 6 hrs measured before inducer addition; type: functional; conditions: read-out: Activity
PC-12 [23] = assay: Phosphorylation of JNK in rat PC12 cells at 10 uM up to 120 mins by Western blot analysis; type: cell-based
PC-12 [24] = assay: Increase in intracellular ROS production in rat PC12 cells assessed as induction of p38 phosphorylation at 10 uM after 1 hr by Western blot analysis; type: functional, cell-based
PC-12 [25] = assay: Neuroprotective activity against H2O2-induced oxidative stress in rat PC12 cells assessed as cell viability pretreated with 5 uM for 6 hrs measured before inducer addition; type: functional; conditions: read-out: Activity
[26] = target: T1, Nuclear factor erythroid 2-related factor 2 (Rattus norvegicus); assay: Induction of nuclear translocation of Nrf2 in rat PC12 cells at 10 uM after 6 hrs by Western blot analysis; type: functional, cell-based; conditions: PC-12
[27] = target: T1, Nuclear factor erythroid 2-related factor 2 (Rattus norvegicus); assay: Activation of Nrf2/ARE in rat PC12 cells assessed as upregulation of HO-1 protein expression at 10 uM after 6 hrs by Western blot analysis; type: functional, cell-based; conditions: PC-12

Sequence of Mitogen-activated protein kinase 3 (Rattus norvegicus) (P21708 whole entry): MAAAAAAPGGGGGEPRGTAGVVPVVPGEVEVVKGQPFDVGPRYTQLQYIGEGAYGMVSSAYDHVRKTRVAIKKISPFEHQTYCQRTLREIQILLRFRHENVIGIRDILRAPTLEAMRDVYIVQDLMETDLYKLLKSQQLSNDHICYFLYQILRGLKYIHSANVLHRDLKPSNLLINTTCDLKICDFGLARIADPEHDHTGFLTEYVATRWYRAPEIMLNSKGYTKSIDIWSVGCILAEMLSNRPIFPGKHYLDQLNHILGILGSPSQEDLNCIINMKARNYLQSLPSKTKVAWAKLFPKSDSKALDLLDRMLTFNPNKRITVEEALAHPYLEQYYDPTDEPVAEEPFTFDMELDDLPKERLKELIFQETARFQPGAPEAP
Sequence of Mitogen-activated protein kinase 1 (Rattus norvegicus) (P63086 whole entry): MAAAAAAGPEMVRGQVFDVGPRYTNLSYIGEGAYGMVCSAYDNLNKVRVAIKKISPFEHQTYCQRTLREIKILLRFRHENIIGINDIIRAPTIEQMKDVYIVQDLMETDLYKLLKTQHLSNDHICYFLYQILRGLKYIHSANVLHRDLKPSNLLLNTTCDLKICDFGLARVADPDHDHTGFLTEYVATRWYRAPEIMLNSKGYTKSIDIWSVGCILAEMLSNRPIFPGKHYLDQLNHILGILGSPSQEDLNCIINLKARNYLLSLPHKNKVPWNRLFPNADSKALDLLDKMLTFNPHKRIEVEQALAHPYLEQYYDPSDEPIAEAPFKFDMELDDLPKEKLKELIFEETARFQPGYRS

c1cc2c(cc1[C@H]1OC[C@H]3[C@@H]1CO[C@H]3c1ccc3c(c1)OCO3)OCO2
Activity [1]: inactive

COc1cc([C@H]2OC[C@H]3[C@@H]2CO[C@@H]3c2ccc3c(c2)OCO3)ccc1O
Activity [1]: inactive

Oc1ccc([C@H]2OC[C@H]3[C@@H]2CO[C@@H]3c2ccc(O)c(O)c2)cc1O
Activity [1]: Active

Oc1ccc(C2OC[C@@H]3C(c4ccc5c(c4)OCO5)OC[C@H]23)cc1O (some centres undefined)
fold change (FC) [1]: 2

COc1cc(C2OC[C@@H]3C(c4ccc5c(c4)OCO5)OC[C@H]23)ccc1O (mixture of isomers)
Activity [1]: inactive

Oc1ccc([C@H]2OC[C@H]3[C@@H]2CO[C@H]3c2ccc(O)c(O)c2)cc1O
Activity [1]: inactive

c1cc2c(cc1[C@H]1OC[C@H]3[C@@H]1CO[C@@H]3c1ccc3c(c1)OCO3)OCO2
Activity [1]: inactive

Oc1ccc([C@H]2OC[C@H]3[C@@H]2CO[C@@H]3c2ccc3c(c2)OCO3)cc1O
Activity (PC-12 [2]): inactive | viability at 2 µM (PC-12 [3]): 52% | Activity (PC-12 [4]): Active | Activity (PC-12 [5]): Active | Activity [6]: inactive | Activity (PC-12 [7]): inactive | Activity [8]: Dose-dependent effect | fold change (FC) [9]: 6 | Activity [10]: inactive | Activity [11]: inactive | Activity [12]: Active | Activity [13]: Active | Activity (PC-12 [14]): Active | Activity (PC-12 [15]): Active | Activity [16]: Active | Activity [17]: Active | Activity [18]: Active | Activity [19]: Active | Activity (PC-12 [20]): inactive | Activity (PC-12 [21]): inactive | viability at 10 µM (PC-12 [22]): 82% | Activity (PC-12 [23]): Active | fold change (FC) [1]: 2 | Activity (PC-12 [24]): Active | viability at 5 µM (PC-12 [25]): 67% | Activity [26]: Active | Activity [27]: Active
